One assay addresses T1, human P-Selectin protein (Homo sapiens, UniProt P16109).
T1 sequence (P16109 42-830): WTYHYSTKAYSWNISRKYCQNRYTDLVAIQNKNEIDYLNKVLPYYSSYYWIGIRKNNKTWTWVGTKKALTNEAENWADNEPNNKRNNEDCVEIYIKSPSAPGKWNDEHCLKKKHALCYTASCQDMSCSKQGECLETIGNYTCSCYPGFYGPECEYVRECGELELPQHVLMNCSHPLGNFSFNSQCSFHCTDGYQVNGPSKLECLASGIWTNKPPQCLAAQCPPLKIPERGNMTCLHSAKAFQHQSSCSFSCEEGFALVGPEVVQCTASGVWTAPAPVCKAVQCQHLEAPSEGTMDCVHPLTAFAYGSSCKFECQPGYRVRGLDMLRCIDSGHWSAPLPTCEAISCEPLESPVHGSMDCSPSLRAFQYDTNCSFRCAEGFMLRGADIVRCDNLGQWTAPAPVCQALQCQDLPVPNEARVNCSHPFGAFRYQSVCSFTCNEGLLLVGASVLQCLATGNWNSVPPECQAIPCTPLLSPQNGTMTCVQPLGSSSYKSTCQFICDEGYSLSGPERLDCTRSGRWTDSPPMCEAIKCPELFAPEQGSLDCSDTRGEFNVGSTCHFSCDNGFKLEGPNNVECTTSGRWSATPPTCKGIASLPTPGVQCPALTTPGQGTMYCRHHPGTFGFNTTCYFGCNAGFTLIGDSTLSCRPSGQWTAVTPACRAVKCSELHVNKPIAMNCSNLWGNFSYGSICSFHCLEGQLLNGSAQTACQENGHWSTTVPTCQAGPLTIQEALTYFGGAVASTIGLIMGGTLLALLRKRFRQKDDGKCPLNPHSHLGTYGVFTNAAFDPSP
The assay can be described thus: SPR binding assay (Biacore). The settings on record: recombinant biotinylated human P-Selectin, 25° C.; read-out: Affinity KD determined by SPR. As for the experimental part: Biacore experiments were performed to determine ka (M−1s−1), kd (s−1), KD (nM) values of monomeric peptides binding to human Selectin proteins. Recombinant biotinylated human P-Selectin protein was used. For analysis of binding, either a Biacore 3000 or 5200 instrument was used with a CMS sensor chip (GE Healthcare). For sensor chip surface preparation, streptavidin was immobilized on the chip using standard amine-coupling chemistry at 25° C. with HBS-N (10 mM HEPES, 0.15 M NaCl, pH 7.4) as the running buffer. The carboxymethyl dextran surface was activated with a 12 min injection of a 1:1 ratio of 0.4 M 1-ethyl-3-(3-dim ethyl aminopropyl) carbodiimide hydrochloride (EDC)/0.1 M N-hydroxy succinimide (NHS) at a flow rate of 10 μl/min. For capture of streptavidin, protein was diluted to 0.2 mg/ml in 10 mM sodium acetate (pH 4.5) and captured by injecting 70 μl onto the activated chip surface. Residual activated groups were blocked with a 7 min injection of 1 M ethanolamine (pH 8.5). Biotinylated protein stock was diluted 1:100 in HBS-N and captured on one flow cell at 5 μl/min to a level of 1000-1500 RU. Buffer was changed to PBS/0.05% Tween 20 and a dilution series of the peptides was prepared in this buffer with a final DMSO concentration of 0.5%. The top concentration of the analyte varied from 200 nM to 50 μM; depending on predicted affinity of the interaction. In all cases a titration was performed with either seven 2-fold dilutions or five 3-fold dilutions. The SPR analysis was run at 25° C. with a flow rate of 50-80 μl/min with 60 seconds association and a suitable disassociation period (100-900 seconds). Data were corrected for DMSO excluded volume effects. All data were double-referenced for blank injections and reference surface using standard processing procedures and data processing and kinetic fitting were performed using Scrubber software, version 2.0c (BioLogic Software). Data were fitted using mass transport model allowing for mass transport effects where appropriate.
In general terms: Surface plasmon resonance follows binding to a sensor surface in real time, without labels.

The target of assay [1] is T2, P-Selectin:PSGL1 interaction (Homo sapiens, UniProt P16109).
T2 construct: host or cells: HL-60 cells (ATCC, CCL-240) supply the PSGL-1 partner endogenously
T2 sequence (P16109 42-771 limits assumed): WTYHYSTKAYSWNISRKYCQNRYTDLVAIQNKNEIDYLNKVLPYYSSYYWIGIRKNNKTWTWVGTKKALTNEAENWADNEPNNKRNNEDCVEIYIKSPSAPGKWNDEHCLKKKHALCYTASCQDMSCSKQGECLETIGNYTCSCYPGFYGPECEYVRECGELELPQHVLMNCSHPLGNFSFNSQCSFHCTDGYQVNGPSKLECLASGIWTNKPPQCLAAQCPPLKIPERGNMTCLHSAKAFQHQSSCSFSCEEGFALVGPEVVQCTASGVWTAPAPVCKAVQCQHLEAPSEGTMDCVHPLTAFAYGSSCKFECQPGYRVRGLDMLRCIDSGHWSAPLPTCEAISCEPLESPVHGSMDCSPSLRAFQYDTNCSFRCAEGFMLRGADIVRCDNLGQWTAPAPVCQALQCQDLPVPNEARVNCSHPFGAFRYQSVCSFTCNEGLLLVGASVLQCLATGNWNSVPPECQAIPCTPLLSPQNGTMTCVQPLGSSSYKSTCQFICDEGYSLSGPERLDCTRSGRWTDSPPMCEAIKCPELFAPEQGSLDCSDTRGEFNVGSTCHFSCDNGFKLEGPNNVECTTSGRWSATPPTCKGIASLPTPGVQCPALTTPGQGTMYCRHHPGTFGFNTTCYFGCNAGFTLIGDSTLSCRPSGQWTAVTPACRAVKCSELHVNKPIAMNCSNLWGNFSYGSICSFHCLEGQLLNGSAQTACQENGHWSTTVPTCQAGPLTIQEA
Description: Receptor ligand inhibition assay (P-Selectin binding to HL-60 cells). It is filed as cell-based. The settings on record: geomean of n=3; for IC50: 5 nM P-Selectin, HL-60 cells, read-out: IC50; for Inhibition at top concentration: 100−% response at top concentration. As to the method:
Bicycle test samples, SelG1 (Crizanlizumab) were serially diluted maintaining 0.5% DMSO in assay buffer (25 mM HEPES, 121 mM NaCl, 5.4 mM KCl, 0.8 mM MgCl2, 1.8 mM CaCl2), 6 mM […], 5.5 mM glucose, 1% BSA, pH7.4) and transferred to 384 well clear bottom plates (Corning, 3712) with a final volume of 6 μL. […], of P-Selectin in imaging buffer (25 mM HEPES, 121 mM NaCl, 5.4 mM KCl, 0.8 mM MgCl2, 1.8 mM CaCl2), 6 mM […], 5.5 mM glucose, pH7.4) was added to give a 5 nM final concentration and incubated at room temperature for 15 minutes. HL-60 cells (ATCC, CCL-240) mixed with 1 μg/mL far red labelled wheat germ agglutinin (WGA, ThermoFisher W21404) and 1 μg/mL AlexaFluor 488-streptavidin (Invitrogen S11223) were added to the plate and incubated for 2 hours at room temperature in the absence of light. Staining and antibody binding were quantified by simultaneously scanning the microplates with 488 nm and 640 nm lasers on a mirrorball microplate cytometer, AF488 on FL2 triggering on AF647-WGA on FL4. Data was analysed in Dotmatics, using a four parameter logistic fit to generate IC50 values and % response. Percent inhibition was calculated using 100−% response at top concentration.

Starred links: 1 amine or outer side, 2 acyl side, 3 side chain; linkers in the order of their positions; H or OH if unused. Positions of bridges follow the written chain, without caps; N, C: chain ends. Non-standard residues stand in square brackets, D forms with d. Residues, ends and D or L forms follow the SMILES beside them. Chains are numbered I, II in the order given. X5 = O=C(CCCC(=O)NCCOCCOCCOCCOCCOCCOCCOCCOCCOCCOCCn1cc(CCC(=O)[*:2])nn1)NCCOCCOCCOCCOCCOCCOCCOCCOCCOCCOCCn1cc(CCC(=O)[*:1])nn1; TATA = O=C(CC[*:1])N1CN(C(=O)CC[*:2])CN(C(=O)CC[*:3])C1; X1 = O=C(C[*:1])N1CCN(C(=O)C[*:2])CCN(C(=O)C[*:3])CC1; 1Nal = N[C@@H](Cc1cccc2ccccc12)C(=O)O

Take `CSCC[C@@H]1NC(=O)[C@H](Cc2ccc(O)cc2)NC(=O)[C@@H](NC(=O)[C@H](C)NC(=O)CCc2cn(CCOCCOCCOCCOCCOCCOCCOCCOCCOCCOCCNC(=O)CCCC(=O)NCCOCCOCCOCCOCCOCCOCCOCCOCCOCCOCCn3cc(CCC(=O)N[C@@H](C)C(=O)N[C@H]4CSCCC(=O)N5CN6CN(C5)C(=O)CCSC[C@H](NC(=O)[C@H](Cc5c[nH]c7ccccc57)NC(=O)[C@H](CCC(=O)O)NC(=O)[C@H](CCSC)NC(=O)[C@H](Cc5ccc(O)cc5)NC4=O)C(=O)N[C@@H](CC(=O)O)C(=O)N[C@@H](C(C)C)C(=O)N[C@@H]([C@@H](C)O)C(=O)N[C@@H](CC(=O)O)C(=O)N[C@@H](Cc4ccc(O)cc4)C(=O)NCC(=O)N[C@H](C(=O)N[C@@H](C)C(N)=O)CSCCC6=O)nn3)nn2)CSCCC(=O)N2CN3CN(C2)C(=O)CCSC[C@H](NC(=O)[C@H](Cc2c[nH]c4ccccc24)NC(=O)[C@H](CCC(=O)O)NC1=O)C(=O)N[C@@H](CC(=O)O)C(=O)N[C@@H](C(C)C)C(=O)N[C@@H]([C@@H](C)O)C(=O)N[C@@H](CC(=O)O)C(=O)N[C@@H](Cc1ccc(O)cc1)C(=O)NCC(=O)N[C@H](C(=O)N[C@@H](C)C(N)=O)CSCCC3=O` [BCY5454]: the Kd (commonly a measure of binding affinity in units of concentration) on human P-Selectin protein was 400 nM.

Take `CSCC[C@@H]1NC(=O)[C@H](Cc2ccc(O)cc2)NC(=O)[C@@H](NC(=O)[C@H](C)NC(C)=O)CSCCC(=O)N2CN3CN(C2)C(=O)CCSC[C@H](NC(=O)[C@H](Cc2c[nH]c4ccccc24)NC(=O)[C@H](CCC(=O)O)NC1=O)C(=O)N[C@@H](CC(=O)O)C(=O)N[C@@H](C(C)C)C(=O)N[C@@H]([C@@H](C)O)C(=O)N[C@@H](CC(=O)O)C(=O)N[C@@H](Cc1ccc(O)cc1)C(=O)NCC(=O)N[C@H](C(=O)N[C@@H](CCCCNC(=O)CCc1cn(CCOCCOCCOCCOCCOCCOCCOCCOCCOCCOCCNC(=O)CCCC(=O)NCCOCCOCCOCCOCCOCCOCCOCCOCCOCCOCCn2cc(CCC(=O)NCCCC[C@H](NC(=O)[C@@H]4CSCCC(=O)N5CN6CN(C5)C(=O)CCSC[C@H](NC(=O)[C@H](Cc5c[nH]c7ccccc57)NC(=O)[C@H](CCC(=O)O)NC(=O)[C@H](CCSC)NC(=O)[C@H](Cc5ccc(O)cc5)NC(=O)[C@@H](NC(=O)[C@H](C)NC(C)=O)CSCCC6=O)C(=O)N[C@@H](CC(=O)O)C(=O)N[C@@H](C(C)C)C(=O)N[C@@H]([C@@H](C)O)C(=O)N[C@@H](CC(=O)O)C(=O)N[C@@H](Cc5ccc(O)cc5)C(=O)NCC(=O)N4)C(N)=O)nn2)nn1)C(N)=O)CSCCC3=O` [BCY5456] (I: Ac-ACYMEWCDVTDYGCK-NH2 / II: Ac-ACYMEWCDVTDYGCK-NH2; linker I:2-I:7-I:14, II:2-II:7-II:14 via TATA; linker I:15-II:15 via X5): the Kd at human P-Selectin protein was 500 nM. As for `CSCC[C@@H]1NC(=O)[C@H](Cc2ccc(O)cc2)NC(=O)[C@@H](NC(C)=O)CSCCC(=O)N2CN3CN(C2)C(=O)CCSC[C@H](NC(=O)[C@H](Cc2c[nH]c4ccccc24)NC(=O)[C@H](CCC(=O)O)NC1=O)C(=O)N[C@@H](CC(=O)O)C(=O)N[C@@H](C(C)C)C(=O)N[C@@H]([C@@H](C)O)C(=O)N[C@@H](CC(=O)O)C(=O)N[C@@H](Cc1ccc(O)cc1)C(=O)NCC(=O)N[C@H](C(N)=O)CSCCC3=O` [BCY9717, Ac-(SEQ ID NO: 6)] (Ac-CYMEWCDVTDYGC-NH2; linker 1-6-13 via TATA; C-terminus assumed), in assay [1], the IC50 – broadly, the concentration at which inhibition is half-maximal – was greater than 10900 nM and the Inhibition – broadly, how much of the control response was suppressed – at top concentration was determined as 20%. For the compound `CSCC[C@@H]1NC(=O)[C@H](Cc2ccc(O)cc2)NC(=O)[C@@H](NC(=O)[C@H](C)NC(C)=O)CSCCC(=O)N2CN3CN(C2)C(=O)CCSC[C@H](NC(=O)[C@H](Cc2cccc4ccccc24)NC(=O)[C@H](CCC(=O)O)NC1=O)C(=O)N[C@@H](CC(=O)O)C(=O)N[C@@H](C(C)C)C(=O)N[C@@H]([C@@H](C)O)C(=O)N[C@@H](CC(=O)O)C(=O)N[C@@H](Cc1ccc(O)cc1)C(=O)NCC(=O)N[C@H](C(=O)N[C@@H](C)C(N)=O)CSCCC3=O` [BCY11279, Ac-A-(SEQ ID NO: 4)-A] (Ac-ACYME[1Nal]CDVTDYGCA-NH2; linker 2-7-14 via TATA), in assay [1], the IC50 is greater than 3540 nM and the “Inhibition at top concentration” value is 24%.

For `CC(C)C[C@@H]1NC(=O)[C@H](CO)NC(=O)[C@@H]2CCCN2C(=O)[C@H](C(C)C)NC(=O)[C@H](CC(=O)O)NC(=O)[C@@H]2CSCC(=O)N3CCN(CCN(CC3)C(=O)CSC[C@@H](C(=O)N[C@@H](C)C(N)=O)NC(=O)[C@@H]3CCCN3C1=O)C(=O)CSC[C@H](NC(=O)[C@H](C)N)C(=O)N[C@@H](CC(=O)O)C(=O)N[C@@H](C)C(=O)N[C@@H](CC(=O)O)C(=O)N[C@@H](Cc1c[nH]c3ccccc13)C(=O)N2` [BCY11648, A-(SEQ ID NO: 3)-A] (H-ACDADWCDVPSLPCA-NH2; linker 2-7-14 via X1; N-terminus and C-terminus assumed), in assay [1], the IC50 is greater than 117 nM and the “Inhibition at top concentration” value was 37%.

The record behind these values is patent US12150998B2, “Bicyclic peptide ligands specific for P-selectin” (BicycleTx Limited, priority 2021, dated 2024).
